From patent US20210212913A1, “COSMETIC COMPOSITION FOR PROMOTING SKIN EXFOLIATION” (LG HOUSEHOLD & HEALTH CARE LTD., priority 2017, published 2021)

System: porcine skin stratum corneum
Test: porcine skin stratum corneum evaluation (exfoliation evaluation)
Type: cell-based, pig
Conditions: 6 mm porcine skin sample, 100 ul sample, 37° C. and 50% humidity for a day; result in words (values only in figures)
Procedure: For the porcine skin stratum corneum evaluation of the present disclosure, the exfoliation evaluation method mentioned in Journal of the European Academy of Dermatology and Venereology, 2014, 28, 415-423 was modified and used. Specifically, a sample of 6 mm diameter from 1 mm thick skin of a pig, and the like, was taken with a biopsy tool, and it was placed in a 96-well plate, and after washing it with phosphate buffered saline (PBS) once, 100 ul of the sample to be tested was added. The present sample was stored under the conditions of 37° C. and 50% humidity for a day, and then the number of exfoliated stratum corneum was measured with a cell counter and a sample containing only water was plotted as a negative control group and 10% gluconolactone […] was plotted as a positive control group. The result was shown in the fold increase compared to the value of the result of gluconolactone 10% pH 6 for relative comparison.

Structure (SMILES): NC(=O)NC1NC(=O)NC1=O (stereo not shown) [allantoin]
- exfoliation ability (number of exfoliated stratum corneum, fold increase compared to gluconolactone 10% pH 6): did not have high efficacy when used alone
